From publication PMC11725581, “Developing novel Lin28 inhibitors by computer aided drug design” (Cell Death Discovery, 2025)
“Also recorded” adds a separate entry of the source.

Assays:
[1] = system: DuNE(KO) cells (Lin28b gene knocked out by CRISPR); assay: Cell proliferation, DuNE(KO) cells; format: cell-based; settings: Lin28b knockout, 72 h
From the text: (§1) To further evaluate whether the suppressive effects of Ln268 are specific to Lin28-positive cancer cells, we compared cell growth rates of DuNE (Lin28b-positive line) and Du145 (Lin28b-negative line), both of which are Lin28a-negative. DuNE has the same genomic background with Du145 except for the transduction of the SRRM4 gene. […] Furthermore, Ln268 had no impact on the cell growth of DuNE(KO) cells, in which the Lin28b gene was knocked out by CRISPR (Fig. 5C). […] We also tested several ovarian and endometrial cancer cell lines with different Lin28a and Lin28b expression profiles (Fig. 5E).

Lin28b ZKD = target: T1, Lin28b ZKD (Homo sapiens, UniProt Q6ZN17); assay: 1H-15N HSQC NMR of Lin28b-ZKD with ligand; format: binding; settings: ligand added in 20:1 molar ratio
T1 sequence (Q6ZN17 127-166 limits assumed): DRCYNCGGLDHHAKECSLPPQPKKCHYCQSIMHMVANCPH
From the text: Given that Ln268 is derived from the parent compound Ln15, we wanted to assess whether the improved properties of Ln268 were linked to a potential difference in its interaction with Lin28 ZKD. To this end, we collected ^1H-^15N HSQC spectra of Lin28b-ZKD, Lin28b-ZKD + Ln15, and Lin28b-ZKD + Ln268. RNA binding proteins (RBPs) commonly have binding pockets that are intrinsically disordered, as evidenced by the narrow chemical shift dispersion observed in the HQSC of Lin28b-ZKD alone (Fig. 3D). Addition of either Ln15 or Ln268 led to changes in the chemical shifts of ca. 20 residues, consistent with the change in conformation of the Lin28b-ZKD segment which encompasses residues 137–160 (three of which are prolines) upon RNA binding (Fig. 3E). Although many of the peak shifts are the same for the Ln15 and Ln268 containing samples, there are around 7 resonances where the peaks disappear in the case of Ln268.
NMR spectra were recorded at 5 °C on a Bruker Avance III 850 MHz spectrometer, equipped with a TCI cryoprobe. ^1H-^15N HSQC experiments were recorded on ^13C/^15N-labeled Lin28b ZKD (230 μM), in 20 mM d-Tris-HCl (pH 7.5), 100 mM NaCl, 1 mM d-DTT, 0.02% NaN3, 0.25 mM ZnCl2 + 1 mM IDA, and 10% D2O, to which unlabeled Ln15 and Ln268 was added, respectively. The time domain matrix was 4k by 512. Four scans were acquired per t1 increment. Spectra were processed and plotted using Topspin to a final size of 8k by 1k. For the overlays, the levels were set to the same base level in all cases, with a multiplication factor of 1.1.

[2] = system: Lin28b protein expression in DuNE cells; assay: Lin28b protein levels by immunoblotting in DuNE cells; format: cell-based; settings: 20uM, 72 h
Experimental: We further tested whether the 13 candidate compounds could penetrate the cell membrane, endure cell-mediated metabolism and excretion, and inhibit Lin28 activities inside cancer cells. […] Since let-7 and Lin28b mutually regulate each other’s expression, increased let-7 expression by Lin28 inhibitors would suppress Lin28b protein levels.
Fig. 3 Validate CADD predicted compounds by cell-based assays. A, B DuNE cells were treated with Lin28b inhibitors for 72 h. Let-7d RNA levels were measured by real-time qPCR (A) and Lin28b protein levels were measured by immunoblotting (B). […] Cell proliferation rates were measured by Incucyte. D Overlay of 1H-15N HSQC spectra for Lin28b-ZKD (black), Lin28b-ZKD + Ln15 (orange), and Lin28b-ZKD + Ln268 (blue). Ligands were added in a 20:1 molar ratio. Approximately 20 residues are seen to shift (from black to orange/blue), with ca. 5 resonances disappearing for Lin28b-ZKD in the presence of Ln268. E Overlay of the 20 NMR models for 2CQF (gray) and 2LI8 (blue) showing the rearrangement of residues 137–160 in going from Lin28b-ZKD alone to the conformation with RNA present. The conformation of Lin28b-ZKD in the presence of the ligands described herein might resemble that of 2LI8, but with a larger conformational spread. All results are presented as the mean ± SD.
Total RNA was extracted by TRIZOL reagent (Invitrogen), treated with deoxyribonuclease and reversely transcribed by random hexamers and superscript II (Invitrogen). Real-time qPCR was performed on the ABI PRISM 7900 HT system (Applied Biosystems) using the FastStart Universal SYBR Green Master mix (Roche) following standard protocol as we reported. All real-time qPCR assays were carried out in triplicates from three independent cDNA syntheses. For immunoblotting assays, whole cell lysis was extracted by a buffer containing 50mM of Tris pH8.0, 150mM of NaCl, 1% NP40, 0.5% sodium deoxycholate, 0.1% SDS and proteinase and phosphatase inhibitors (Roche). Protein lysis separated by SDS-PAGE, transferred to polyvinylidene difluoride membrane, and blotted by specific antibodies.

DuNE spheroids = assay: DuNE 3D spheroid growth (Incucyte); format: cell-based
From the text: CSCs have characteristic tumorigenic, self-renewal, and differentiation properties. The self-renewal ability is hijacked by CSCs that makes them both tumorigenic and capable of sustaining long-term tumor growth, which can be evaluated by 3D spheroid and colony formation assays. We established a DuNE spheroid model in which DuNE cells formed 3D spheroids in 96-well plates (Figure S3). By integrating this 3D culture with the Incucyte live-cell imaging system, we quantified the sizes of the spheroid growth over 0–6 days to generate a spheroid growth curve. Using this model system, we treated the DuNE spheroids with increasing doses (0–100 μM) of C1632, Ln15, and Ln268 for 0–6 days. […] In addition, classic colony formation assays were used to measure the stemness in the DuNE model. Colony formation counts, which were ~50 under vehicle treatment after 14 days, decreased by 22% in C1632-treated plates, and by 75% and 96% in the Ln15 and Ln268 treated plates, respectively (Fig. 4D).
For a spheroid generation, 1000 cells/well were seeded in 96-well ULA round-bottomed plates (Corning, Amsterdam) using a multichannel pipette. 3D multicellular spheroids were spontaneously generated after 24 h culture. Plates were incubated for 6 days at 37 °C, 5% CO2, and 95% humidity. DuNE and Du145 cells were cultured in DMEM with 10% FBS. Fully automated image analysis of tumor spheroids was carried out with the Incucyte® S3 Live-Cell Analysis System. The size and shape of multicellular spheroids were analyzed by using the Incucyte® Spheroid Analysis Software Module.

HEC1B cells = assay: Cell proliferation (Incucyte), HEC1B; format: cell-based; settings: Lin28a/Lin28b-negative
From the text: as §1

residues of Lin28b-ZKD with changed chemical shifts (1H-15N HSQC) (Lin28b ZKD): ca. 20 residues
resonances of Lin28b-ZKD whose peaks disappear (1H-15N HSQC) (Lin28b ZKD): around 7 resonances
SMILES: O=c1[nH]c(Nc2ccc(F)cc2O)cs1 [Ln268]
effect on cell growth of DuNE(KO) cells [1]: no impact
effect on Lin28b protein expression [2]: suppressed Lin28b protein expression
effect on DuNE spheroid growth (DuNE spheroids): strongest potency among all 13 candidate compounds; also recorded: efficiently blocked DuNE spheroid growth in a time-dependent manner
potency improvement over parent compound Ln15 (spheroid growth) (DuNE spheroids): ~ 2 fold
potency relative to C1632 (spheroid growth) (DuNE spheroids): approximately 10 fold
IC50 (DuNE spheroids; 0-100 μM, 0-6 days, read-out: concentration to achieve 50% spheroid growth inhibition): 10 µM
effect on growth of HEC1B cells (HEC1B cells): no or minimal impacts
